Tested on: respiratory syncytial virus Long strain
Experiment: Antiviral activity against respiratory syncytial virus, MTT cell protection assay in HEp-2 cells
Format: cell-based
Settings: HEp-2 cells infected with RSV Long strain, MTT staining
Experimental: The antiviral activity of these compounds against respiratory syncytial virus was determined in HEp-2 (ATCC CCL 23) cells that were seeded in 96 well microtiter plates at 1.5×10^4 cells/100 μL/well in DMEM (Dulbecco's Modified Eagle's Medium) supplemented with penicillin, streptomycin, glutamine, and 10% fetal bovine serum. The cells were incubated overnight at 37° C., the culture medium was removed, and cells were infected (100 μL volume in medium containing 2% fetal bovine serum) with respiratory syncytial virus Long strain at 5000 plaque forming units/mL. The compounds, 100 μL at appropriate dilution, were added to the cells 1 hour post infection. After incubation for 4 days at 37° C., the plates were stained with MTT solution (3-[4,5-dimethlythiazol-2-yl]-2,5-diphenyltetrazolium bromide) and incubated for 4 hours at 37° C. The media was aspirated from the cells and 100 μL/well of acidified isopropanol (per liter: 900 mL isopropanol, 100 mL Triton X100, and 4 mL conc. HCl) was added. Plates were incubated for 15 minutes at room temperature with shaking, and an optical density (OD 540) reading at 540 nanometer (nm) was obtained. The optical density reading is proportional to the number of viable cells. The increase in the number of viable cells reflects the protective, antiviral activity of the compound. […]

- EC50 (human respiratory syncytial virus, compound added 1 hour post infection, 4 days at 37° C., read-out: EC50 (concentration that produces 50% cell protection)): 3000 nM
Compound: NC(=O)c1ncn([C@@H]2O[C@H](CO)[C@@H](O)[C@H]2O)n1 [Ribavirin]
- cell protection (at 2.5 μg/mL (corresponding to 10.2 μM)): 100%

From patent US6489338B2, “Imidazopyridine and imidazopyrimidine antiviral agents” (Bristol-Myers Squibb Company, priority 2000, dated 2002)
